# Results published in patent US20250134867A1, “METHOD FOR MODULATING LIPID METABOLISM, AMELIORATING NON-ALCOHOLIC FATTY LIVER DISEASE AND METABOLIC SYNDROME BY USING 6-METHOXYBENZOXAZOLINONE” (Taichung District Agricultural Research and Extension …, priority 2023, published 2025).
# Key:
# [1] = tested on: HFD-induced obese C57BL/6J mice; assay: Liver fat deposition and liver damage markers (NAFLD) in HFD-induced obese mice; type: in vivo; conditions: for liver weight / ratio of liver weight and body weight / lipid accumulation in the liver tissue (H&E and Oil Red O staining) / hepatic cholesterol (TC) level / hepatic triglyceride (TG) level: HFD mice, 12 weeks oral; for liver weight: CX 10 and 30 mg/kg/day, EGCG 30 mg/kg/day; for ratio of liver weight and body weight: among all groups; for lipid accumulation in the liver tissue (H&E and Oil Red O staining): normal morphology of liver cells maintained; for hepatic cholesterol (TC) level / hepatic triglyceride (TG) level: vs HFD; for serum albumin (ALB) level: compared with ND group, HFD group significantly higher
# Description: The animals used in the examples are described below. 5-week-old male C57BL/6J mice were purchased from The National Laboratory Animal Center, Taipei, Taiwan and were maintained in a temperature-controlled room on a 12-h light-dark cycle. They were housed with four per cage and had free access to food and drinking water. Mice fed with a standard diet and adapted to the environment for 1 week were subsequently divided randomly into five groups. The ND group (n=8) continued on the same diet, whereas the other four groups (n=8 per group) were switched to the HFD (494 kcal/100 g, 45% energy as fat; TestDiet Inc., USA). Among the four HFD groups, three groups started to receive CX at 10 mg/kg/day (CX10 group), CX at 30 mg/kg/day (CX30 group), and epigallocatechin gallate (EGCG) (Sigma, Inc., USA) at 30 mg/kg/day (EGCG30 group) by oral gavage. EGCG was suspended in 0.5% methylcellulose solution for oral administration. Food consumption and weight gain were measured daily and weekly, respectively. After 12 weeks, all mice were sacrificed. Serum samples, liver tissue, epididymis adipose tissue and feces were harvested for further analysis. The experimental protocol was approved by the Animal Research Committee of the National Yang Ming Chiao Tung University (IACUC no. 1091013), and all procedures followed The Guide for the Care and Use of Laboratory Animals (NIH publication, 85-23, revised 1996) and the guidelines of the Animal Welfare Act, Taiwan. The procedure regarding immunohistochemical tissue characterization is as follows. During dissection of the mice, epididymis adipose tissue and liver were isolated, weighed, and subsequently fixed in 10% paraformaldehyde in PBS. After overnight fixation, tissues were embedded in paraffin for hematoxylin and eosin (H&E) staining. All specimens were observed microscopically (Carl Zeiss Inc., Germany) at 200× magnification. […] The procedure regarding biochemical characterization is as follows. The serum triglyceride (TG), total cholesterol (TC), high-density lipoprotein-cholesterol (HDL-C), glutamic oxaloacetic transaminase (GOT), glutamic pyruvic transaminase (GPT), albumin (ALB), uric acid (UA), and creatinine (CRE) levels were measured using enzymatic assay kits with a FUJI DRI-CHEM analyzer (Fujifilm, Tokyo, Japan). The LDL-C level was calculated as [(TC)-(HDL-C)-(TG/5)]. The procedure regarding triglyceride and cholesterol analysis of liver tissue is as follows. For triglyceride and cholesterol determinations, mouse liver tissues were extracted and analyzed using triglyceride and cholesterol quantitation assay kits (Abcam, UK), respectively, according to the manufacturer's instruction.
# [2] = tested on: HFD-induced obese C57BL/6J mice; assay: Renal function markers in HFD-induced obese mice; type: in vivo; conditions: for serum CRE level, difference to ND group: 30 mg/kg/day oral, CX30, ND and EGCG groups compared; for serum CRE level, difference to ND group / serum uric acid (UA) level, difference to ND group: 12 weeks; for serum uric acid (UA) level, difference to ND group: CX 10-30 mg/kg/day, EGCG 30 mg/kg/day oral, compared with ND group
# Description: The animals used in the examples are described below. 5-week-old male C57BL/6J mice were purchased from The National Laboratory Animal Center, Taipei, Taiwan and were maintained in a temperature-controlled room on a 12-h light-dark cycle. They were housed with four per cage and had free access to food and drinking water. Mice fed with a standard diet and adapted to the environment for 1 week were subsequently divided randomly into five groups. The ND group (n=8) continued on the same diet, whereas the other four groups (n=8 per group) were switched to the HFD (494 kcal/100 g, 45% energy as fat; TestDiet Inc., USA). Among the four HFD groups, three groups started to receive CX at 10 mg/kg/day (CX10 group), CX at 30 mg/kg/day (CX30 group), and epigallocatechin gallate (EGCG) (Sigma, Inc., USA) at 30 mg/kg/day (EGCG30 group) by oral gavage. EGCG was suspended in 0.5% methylcellulose solution for oral administration. Food consumption and weight gain were measured daily and weekly, respectively. After 12 weeks, all mice were sacrificed. Serum samples, liver tissue, epididymis adipose tissue and feces were harvested for further analysis. The experimental protocol was approved by the Animal Research Committee of the National Yang Ming Chiao Tung University (IACUC no. 1091013), and all procedures followed The Guide for the Care and Use of Laboratory Animals (NIH publication, 85-23, revised 1996) and the guidelines of the Animal Welfare Act, Taiwan. The procedure regarding biochemical characterization is as follows. The serum triglyceride (TG), total cholesterol (TC), high-density lipoprotein-cholesterol (HDL-C), glutamic oxaloacetic transaminase (GOT), glutamic pyruvic transaminase (GPT), albumin (ALB), uric acid (UA), and creatinine (CRE) levels were measured using enzymatic assay kits with a FUJI DRI-CHEM analyzer (Fujifilm, Tokyo, Japan). The LDL-C level was calculated as [(TC)-(HDL-C)-(TG/5)].
# [3] = CX at both supplementations (10 and 30 mg/kg/day), 12 weeks
# [4] = CX treatment vs HFD group, 12 weeks oral
SMILES,"serum GOT (HFD-induced high level) [1, 3]","serum GPT (HFD-induced high level) [1, 3]",liver weight [1],ratio of liver weight and body weight [1],lipid accumulation in the liver tissue (H&E and Oil Red O staining) [1],hepatic cholesterol (TC) level [1],hepatic triglyceride (TG) level [1],serum albumin (ALB) level [1],"serum CRE level, difference to ND group [2]","serum uric acid (UA) level, difference to ND group [2]","serum creatinine (CRE) level [2, 4]","serum uric acid (UA) level [2, 4]"
"COc1ccc2[nH]c(=O)oc2c1 [CX, 6-methoxybenzoxazolinone]",significantly prevented,significantly prevented,significantly lower than HFD group,did not differ among all groups,greatly ameliorated,much lower,much lower,no difference,no significant difference,no significant difference,decreased,decreased
"O=C(O[C@@H]1Cc2c(O)cc(O)cc2O[C@@H]1c1cc(O)c(O)c(O)c1)c1cc(O)c(O)c(O)c1 [EGCG, epigallocatechin gallate, reference compound]",,,significantly lower than HFD group,did not differ among all groups,greatly ameliorated,much lower,much lower,no difference,no significant difference,no significant difference,,
